In series [1] the test system is P. berghei strain CTRPpGFP early mosquito stage (ookinete) development. Description: P. berghei ookinete development assay (Pb ODA). Particulars: Plasmodium berghei; 24h incubation. Format: cell-based, Plasmodium berghei. The protocol: All mouse procedures were performed in accordance with the UK Animals (Scientific Procedures) Act (PPL 70/7185) and approved by the Imperial College Animal Welfare and Ethical Review Body (AWERB). The ability of test compounds to inhibit P. berghei early mosquito stage development was tested in the Ookinete Development Assay[37] with a few exceptions. Anaesthetised 6- to 8-week-old female Tucks Ordinary (TO) mice infected with P. berghei strain CTRPpGFP[38] were rapidly exsanguinated by cardiac puncture and 500 µl of blood diluted in 25 ml of ookinete medium supplemented with 20% foetal bovine serum. Immediately the blood/medium mixture was dispensed by multichannel pipette into 384 well plates containing pre-plated test compounds. 10 µM cycloheximide and DMSO were used as the positive and negative controls, respectively. Plates were stored in the dark in a humidified incubator at 18 °C for 24 h. Ookinete production was imaged by fluorescence microscopy of GFP expression under the ookinete-specific CTRP promoter using a Nikon Ti-E widefield microscope and ×10 objective. Ookinete production was quantified using ICY and percentage inhibition calculated as above with reference to positive and negative controls.

A further series deals with HepG2 human cells. The arrangement: method as in http://dx.doi.org/10.6019/CHEMBL3507680. The following applies: ref http://dx.doi.org/10.6019/CHEMBL3507680; cited from earlier work.
The subject of series [2] is P. falciparum female gamete formation. Description: Pf DGFA add-in format, female readout. It counts as cell-based. Particulars: Plasmodium falciparum; 0h preincubation/add-in. The protocol:
In profiling mode, the Pf DGFA was performed in 96-well plates[23] in wash-out and add-in formats to aid manual manipulation steps. In the wash-out format, gametocytes were incubated for 24 h with test compounds in round-bottomed 96 well plates and then culture medium replaced three times over 6 h, to remove as much of the compound as possible from the well. […] In add-in format, gametocytes were added directly to flat-bottomed 96-well plates containing test compounds, ookinete medium and anti-Pfs25.

The next series deals with HepG2 cells. The experiment in a line: HepG2 toxicity (CellTiter-Glo, parallel to liver stage assay). Format: cell-based, human. The protocol: (§1) Compound inhibition of P. berghei sporozoite liver infection was assessed in a high-throughput luciferase assay. 1536-well plates (789173-F, Greiner Bio-One) were pre-seeded with 5 µl HepG2-A16-CD81^EGFP cells grown in DMEM (11965–092, Invitrogen) containing 10% FBS (35–011-CV, Corning) and 1× Pen Strep Glutamine (10378–016, Invitrogen). Then, 50 nl of compound in DMSO was dispensed in 12-point serial dilution dose-response format (50 µM to 2.82 × 10^−4 µM), and incubated overnight.A. stephensi mosquitoes infected with P. berghei-ANKA-GFP-Luc-SMCON (Pb-Luc)[41] sporozoites bearing the antifolate-resistance-conferring Toxoplasma gondii dihydrofolate reductase-thymidylate synthase selectable marker, pyR2. After dissection, ~1000 sporozoites in 5 µl screening media (DMEM, 11965–092, Invitrogen; 5% FBS, 35–011-CV, Corning; 5x Pen Strep Glutamine, 10378–016, Invitrogen) were added per well and incubated for 48 h (37 °C, 5% CO2). Bioluminescence was measured using an EnVision microplate reader (Perkin Elmer), following the addition of 2 µl per well of Bright-Glo™ (Promega). Compound toxicity against HepG2 cells was determined in parallel by measuring cellular ATP levels reported by luciferase activity. Methods were similar to the P. berghei liver stage assay, except for the addition of CellTiter-Glo® (Promega) as a detection reagent. DMSO (0.5%) was used as a negative control in both assays, with Atovaquone (5 µM) and Puromycin (10 µM) acting as positive controls in the P. berghei and toxicity assays, respectively.
A general note: In ATP-based viability assays light output follows the ATP content of the culture.

Series [3] relates to Stage IV–V 3D7 gametocytes. Description: Gametocytocidal ATP-based bioluminescence assay (GC-ATP). Format: cell-based, Plasmodium falciparum 3D7. Particulars: Plasmodium falciparum, 3D7; 48h incubation; read-out: Pf late stage gametocyte (ATP depletion) IC50. The protocol:
The metabolic viability of late stage gametocytes was determined using a gametocyte ATP bioluminescence assay. Stage IV–V 3D7 gametocyte cultures were double-purified by density gradient sedimentation over NycoPrep® followed by magnetic isolation. Then, parasites (50 µl per well containing 12,500 gametocytes) were added to compound pre-dispensed 384-well plates (781091, Greiner) and incubated at 37 °C for 48 h under 5% CO2/3% O2/92% N2. BacTiter-Glo® kit (G8231, Promega) was used to determine the ATP levels of viable parasites according to manufacturer’s instructions. After reagent addition (50 µl per well), luminescence of the plates was measured using a microplate reader (HTS counter Victor, Wallac).

Series [4] deals with P. falciparum stage V male gametocytes (male gamete formation). The experiment in a line: P. falciparum dual gamete formation assay (Pf DGFA), male readout (exflagellation), 48 h carry-over format. Format: cell-based, Plasmodium falciparum NF54. The following applies: Plasmodium falciparum, 24h preincubation/carry-over.
The target in series [5] is T1, recombinant luciferase (Photinus pyralis) (Photinus pyralis, UniProt P08659).
T1 construct: purchased Promega E1701
Description: Recombinant luciferase inhibition assay. Format: biochemical. Here is the method:
A counter-screen to the P. berghei liver stage assay was run against recombinant luciferase (Photinus pyralis) to measure the intrinsic bioluminescence inhibition from select compounds. Briefly, compounds were plated in 12-point serial dose response (50–2.82 × 10^−4 µM) in 1536-well opaque-bottom plates (789173-F, Greiner Bio-One). A 20 pM QuantiLum® Recombinant Luciferase (E1701, Promega) containing solution was made in screening media (DMEM, 11965–092, Invitrogen; 5% FBS, 35–011-CV, Corning; 5x Pen Strep Glutamine, 10378–016, Invitrogen), and 8 µl were added to each well. After 1 h incubation at room temperature, 2 µl of Bright-Glo™ (E2610, Promega) were dispensed per well, and bioluminescence was immediately measured using the EnVision microplate reader (PerkinElmer). DMSO (0.5%) and Luciferase Inhibitor-2 (9.8 µM) (119114, MilliporeSigma) served as negative and positive controls, respectively.

In series [6] the test system is P. berghei-ANKA-GFP-Luc-SMCON sporozoites in HepG2-A16-CD81EGFP cells. The experiment in a line: P. berghei liver stage assay (luciferase sporozoite HepG2 invasion). Particulars: Plasmodium berghei. It counts as cell-based. Here is the method: as §1
The mark [7] stands for this setting: 1h incubation, read-out: Recombinant luciferase assay IC50.
The mark [8] stands for this setting: 48h incubation, read-out: Pb Liver invasion assay IC50.

Like-named read-outs stand apart in the source and are kept apart here.

T1 sequence (P08659 whole entry): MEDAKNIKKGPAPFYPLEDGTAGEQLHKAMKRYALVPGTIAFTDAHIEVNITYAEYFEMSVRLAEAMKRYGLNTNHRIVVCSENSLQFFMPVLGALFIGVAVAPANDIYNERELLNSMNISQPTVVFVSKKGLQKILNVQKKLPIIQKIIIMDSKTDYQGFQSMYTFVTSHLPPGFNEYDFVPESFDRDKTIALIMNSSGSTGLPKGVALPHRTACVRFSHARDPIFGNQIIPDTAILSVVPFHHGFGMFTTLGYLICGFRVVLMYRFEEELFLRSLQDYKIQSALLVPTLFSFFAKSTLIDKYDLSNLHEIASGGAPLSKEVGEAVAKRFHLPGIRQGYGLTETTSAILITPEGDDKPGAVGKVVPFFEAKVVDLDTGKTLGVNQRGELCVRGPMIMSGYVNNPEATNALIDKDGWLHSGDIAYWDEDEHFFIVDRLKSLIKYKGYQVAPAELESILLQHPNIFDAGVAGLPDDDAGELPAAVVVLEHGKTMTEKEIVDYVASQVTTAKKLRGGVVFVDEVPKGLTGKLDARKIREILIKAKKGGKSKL

A word on the IC50: it is the midpoint of a concentration-inhibition curve. `COc1cccc(-n2ccc3nc(N4CCCC4)ncc3c2=O)c1` [DDD01034957]: the IC50 in series [1] was > 12.5 µM; in series [2] it was > 10 µM; in series [3], > 10 µM; in series [4], > 12.5 µM; in series [5] (setting [7]), 6.7 µM. Besides, in the series with HepG2 human cells, the “%Inh HepG2 @10uM” value is -4.05%. The “Human HepG2 assay TOX50” value in the series on HepG2 cells (human, 48 h) is reported as >50.0 µM.

As to `Cc1cccc(NC(=O)c2cccc(OCc3nnnn3C)c2)n1` [DDD01038630], the IC50 was > 12.5 µM in series [1]; > 50 µM in series [6] (setting [8]); > 10 µM in series [2]; > 10 µM in series [3]; > 12.5 µM in series [4]; > 50 µM in series [5] (setting [7]). Also, in the series with HepG2 human cells, the “%Inh HepG2 @10uM” value is listed as 18.75%. Besides, the “Human HepG2 assay TOX50” value in the series with HepG2 cells (human, 48 h) is >50.0 µM.

For the compound `Cc1ccc(CN(c2cc(C)nc3nc(C(F)(F)F)nn23)C2CC2)cc1` [DDD01063654], the IC50 in series [1] was > 12.5 µM; in series [6] (setting [8]), 15.3 µM; in series [2], > 10 µM; in series [3] it was > 10 µM; in series [4], > 12.5 µM; in series [5] (setting [7]), > 50 µM. The “%Inh HepG2 @10uM” value in the series with HepG2 human cells was 0.83%. In addition, the “Human HepG2 assay TOX50” value in the series with HepG2 cells (human, 48 h) was >50.0 µM.

As to `Cc1cc(C)c(CNCC(O)c2ccc(F)c(F)c2)c(C)c1.Cl` (stereo not drawn) [DDD01065539], the IC50 is > 12.5 µM in series [1]; 17.2 µM in series [6] (setting [8]); > 10 µM in series [2]; > 10 µM in series [3]; > 12.5 µM in series [4]; > 50 µM in series [5]. Also, the “%Inh HepG2 @10uM” value with HepG2 human cells was -11.40%. Moreover, the “Human HepG2 assay TOX50” value with HepG2 cells (48h incubation) is given as 36.6 µM.

With `CN(Cc1cccc(F)c1)C(=O)CS(=O)(=O)Cc1c(Cl)cccc1Cl` [DDD01077188], the IC50 is > 12.5 µM in series [1]; 23.1 µM in series [6] (setting [8]); > 10 µM in series [2]; > 10 µM in series [3]; > 12.5 µM in series [4]; > 50 µM in series [5] (setting [7]). Further, the “%Inh HepG2 @10uM” value in the series on HepG2 human cells is 5.76%. In the series with HepG2 cells (human, 48 h), the “Human HepG2 assay TOX50” value is listed as >50.0 µM.

In the case of `CNc1cc(C)nc(NC2CCCN(C3Cc4ccccc4C3)C2)n1` (stereo not drawn) [DDD01243506], the IC50 in series [1] was > 12.5 µM; in series [6] (read-out: Pb liver IC50) it was 0.52 µM; in series [2], > 10 µM; in series [3], > 10 µM; in series [4], > 12.5 µM; in series [5] (setting [7]), > 50 µM. Besides, in series [5] (read-out: Recombinant luciferase IC50), the IC50 is ≥ 50 µM. In the series with HepG2 human cells, the “%Inh HepG2 @10uM” value was 28.56%. In addition, the “HepG2 TOX50” value in the series on HepG2 cells (human, 48 h) is on record as ≥ 50 µM. The “Human HepG2 assay TOX50” value with HepG2 cells (human, 48 h) is >50.0 µM.

For the compound `CC(c1cccs1)N(C)Cc1cnc(-c2ccccn2)nc1` (stereo not drawn) [DDD01246628], the IC50 was > 25 µM in series [1]; 13.3 µM in series [6] (setting [8]); > 10 µM in series [2]; 2.31 µM in series [3]; > 25 µM in series [4]; 4.28 µM in series [5] (setting [7]). For the same compound, in the series with HepG2 human cells, the “%Inh HepG2 @10uM” value is 3.52%. For the same compound, the “Human HepG2 assay TOX50” value with HepG2 cells (human, 48 h) is 11.30 µM.

Consider `CCCn1nccc1C(=O)N1CCN(C2CCc3ccccc3C2)CC1` (stereo not drawn) [DDD01251134], for which the IC50 in series [1] was > 12.5 µM; in series [6] (setting [8]), 20.7 µM; in series [2] it was > 10 µM; in series [3] it was > 10 µM; in series [4] it was > 12.5 µM; in series [5] (setting [7]), > 50 µM. For the same compound, in the series on HepG2 human cells, the “%Inh HepG2 @10uM” value was -7.89%. The “Human HepG2 assay TOX50” value in the series on HepG2 cells (human, 48 h) is given as >50.0 µM.

For `CCn1ncc(Br)c1CN(C)S(=O)(=O)c1ccc(C)cc1` [DDD01259521], the IC50 is > 12.5 µM in series [1]; 8.64 µM in series [6] (setting [8]); > 10 µM in series [2]; > 10 µM in series [3]; > 12.5 µM in series [4]; > 50 µM in series [5] (setting [7]). In the series with HepG2 human cells, the “%Inh HepG2 @10uM” value was 8.37%. In the series on HepG2 cells (human, 48 h), the “Human HepG2 assay TOX50” value was >50.0 µM.

On to `c1cnnc(N2CCCC2CNc2ncnc3sccc23)c1` (stereo not drawn) [DDD01299704], for which the IC50 was > 12.5 µM in series [1]; 16.4 µM in series [6] (setting [8]); > 10 µM in series [2]; > 10 µM in series [3]; > 12.5 µM in series [4]; > 50 µM in series [5] (setting [7]). Moreover, the “%Inh HepG2 @10uM” value with HepG2 human cells is reported as -7.82%. Besides, the “Human HepG2 assay TOX50” value in the series on HepG2 cells (human, 48 h) is given as >50.0 µM.

These data come from paper PMC6143625, “A high throughput screen for next-generation leads targeting malaria parasite transmission” (Nature Communications, 2018).
